According to patent US12398151B2, “Sumo inhibitor compounds and uses thereof” (SUVALENT THERAPEUTICS, INC., priority 2019, dated 2025):
Where two headings read alike, the source gives them in different places.

Experiments:
Atg7 = target: T1, Atg7 (Homo sapiens, UniProt O95352); assay: Atg7 activating enzyme (E1) inhibition; type: biochemical; details: 25 uM compound, 60 min preincubation; read-out: Atg7 percent inhibition of adduct formation
T1 sequence (O95352 1-703): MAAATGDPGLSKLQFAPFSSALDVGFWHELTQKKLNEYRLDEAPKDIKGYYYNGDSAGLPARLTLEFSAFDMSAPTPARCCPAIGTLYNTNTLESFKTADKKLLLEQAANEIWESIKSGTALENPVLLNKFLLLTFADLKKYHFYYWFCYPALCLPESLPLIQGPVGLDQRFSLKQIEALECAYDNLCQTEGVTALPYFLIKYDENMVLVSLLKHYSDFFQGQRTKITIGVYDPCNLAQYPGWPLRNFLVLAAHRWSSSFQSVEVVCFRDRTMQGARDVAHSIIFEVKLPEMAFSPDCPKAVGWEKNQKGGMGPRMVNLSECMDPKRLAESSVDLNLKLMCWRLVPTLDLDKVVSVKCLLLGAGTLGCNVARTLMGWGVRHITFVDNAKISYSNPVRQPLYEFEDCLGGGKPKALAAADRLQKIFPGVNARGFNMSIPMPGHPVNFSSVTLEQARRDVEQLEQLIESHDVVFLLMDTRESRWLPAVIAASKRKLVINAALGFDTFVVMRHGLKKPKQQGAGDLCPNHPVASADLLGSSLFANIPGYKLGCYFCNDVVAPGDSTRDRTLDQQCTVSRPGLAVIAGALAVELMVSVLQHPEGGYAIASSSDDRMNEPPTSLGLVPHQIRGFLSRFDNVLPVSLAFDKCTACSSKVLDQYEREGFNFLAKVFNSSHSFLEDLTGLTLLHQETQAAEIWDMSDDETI
Method: (§1) Compounds are evaluated for their inhibitory effect on activating enzymes (E1) of ubiquitin, SUMO, Nedd8, Urm1, ISG15 or Atg7 using previously reported methods and protocols. One example is in: Allosteric inhibition of ubiquitin-like modifications by a class of inhibitor of SUMO-activating enzyme. Cell Chemical Biology, 26, 1-11, 2019. PMID: 28051857.
(§2) Compounds are tested in the following manner. The compound and SUMO E1 are incubated for a predetermined amount of time. UBC9, SUMO1, and ATP are added to the E1-compound mixture and incubated at 37° C. The reaction is quenched with Laemmli Buffer. The UBC9-SUMO1 conjugation is analyzed via SDS gel electrophoresis. The percent inhibition is measured by the intensity of the UBC9-SUMO1 band compared to the no compound control. Activities are listed as compound concentration (uM), preincubation time of E1 with compound (min), and percent inhibition of adduct formation (%). […]

SUMO E1 = target: T2, SUMO E1 (Homo sapiens, UniProt Q9UBT2); assay: SUMO E1 inhibition: UBC9-SUMO1 conjugation by SDS gel electrophoresis; type: biochemical; details: for inhibition at 9 µM: 9 uM compound; for inhibition at 9 µM / inhibition at 27 µM / inhibition at 25 µM / inhibition at 3 µM / inhibition at 10 µM / inhibition at 1 µM: read-out: SUMO E1 percent inhibition of adduct formation; for inhibition at 27 µM: 27 uM compound; for inhibition at 3 µM: 3 uM compound; for inhibition at 10 µM: 10 uM compound; for inhibition at 1 µM: 1 uM compound
T2 sequence (Q9UBT2 1-640): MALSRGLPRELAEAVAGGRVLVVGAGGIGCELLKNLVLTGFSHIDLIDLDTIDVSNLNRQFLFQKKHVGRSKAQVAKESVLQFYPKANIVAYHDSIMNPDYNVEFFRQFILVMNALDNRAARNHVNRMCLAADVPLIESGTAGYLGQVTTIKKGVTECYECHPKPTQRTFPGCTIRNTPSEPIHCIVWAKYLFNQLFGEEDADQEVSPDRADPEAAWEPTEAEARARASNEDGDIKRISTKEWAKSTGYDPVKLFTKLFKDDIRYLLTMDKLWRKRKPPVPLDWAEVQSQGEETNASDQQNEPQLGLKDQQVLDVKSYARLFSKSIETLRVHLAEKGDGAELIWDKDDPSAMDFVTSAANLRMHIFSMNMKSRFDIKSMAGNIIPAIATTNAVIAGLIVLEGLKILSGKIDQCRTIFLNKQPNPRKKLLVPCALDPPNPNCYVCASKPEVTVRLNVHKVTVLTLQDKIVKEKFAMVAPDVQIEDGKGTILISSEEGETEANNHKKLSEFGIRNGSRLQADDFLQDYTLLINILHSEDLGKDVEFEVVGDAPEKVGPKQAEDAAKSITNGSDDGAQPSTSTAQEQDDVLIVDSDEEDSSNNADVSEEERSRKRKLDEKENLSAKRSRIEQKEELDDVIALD
T2 sequence (Q9UBE0 1-346 partner): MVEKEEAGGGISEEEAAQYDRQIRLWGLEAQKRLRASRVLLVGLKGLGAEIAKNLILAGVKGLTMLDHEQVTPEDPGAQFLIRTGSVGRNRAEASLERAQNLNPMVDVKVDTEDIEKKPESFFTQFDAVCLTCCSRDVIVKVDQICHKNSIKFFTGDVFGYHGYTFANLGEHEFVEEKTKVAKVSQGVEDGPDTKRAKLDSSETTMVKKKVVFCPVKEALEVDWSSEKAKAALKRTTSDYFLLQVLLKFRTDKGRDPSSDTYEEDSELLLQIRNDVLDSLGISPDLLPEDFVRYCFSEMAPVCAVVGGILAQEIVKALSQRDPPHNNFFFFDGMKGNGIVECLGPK
Method: as §1, §2

[1] = 25 uM compound, 60 min preincubation
[2] = 25 uM compound, 30 min preincubation

inhibition at 25 µM (Atg7)	inhibition at 25 µM (SUMO E1; [1])	Structure (SMILES)	further results
< 1%	–	Cc1ccccc1[C@H]1CN(C(=O)/C=C/CN(C)C)Cc2sc(Cl)cc21 [Compound 99]	inhibition at 9 µM (SUMO E1; 20 min preincubation): < 1%
< 1%	–	Cc1ccccc1[C@H]1CN(C(=O)/C=C/C(F)(F)c2ccccn2)Cc2sc(Cl)cc21 [Compound 143]	inhibition at 27 µM (SUMO E1; 30 min preincubation): < 1%
< 1%	–	C=CC(=O)N1Cc2sc(Cl)cc2[C@@H](c2ccccc2C2CC2)C1 [Compound 135]	inhibition at 27 µM (SUMO E1; 30 min preincubation): 95%
< 1%	40%	C=CC(=O)N1CCc2cc(CC(C)C)ccc2C1 [Compound 19]	–
< 1%	–	C=CC(=O)N1Cc2ccc(Cl)c(Cl)c2[C@@H](c2ccccc2)C1 [Compound 101]	inhibition at 3 µM (SUMO E1; 15 min preincubation): 30%
< 1%	–	C=CC(=O)N1CCc2cc(-c3ccccc3)ccc2C1 [Compound 6]	inhibition at 25 µM (SUMO E1; [2]): < 1%
30%	20%	C=CC(=O)N1Cc2cc(Br)ccc2[C@@H](c2ccccc2O)C1 [Compound 77]	–
< 1%	70%	C=CC(=O)N1CCc2cc(Br)ccc2C1 [Compound 3]	–
< 1%	< 1%	C=CC(=O)N1Cc2ccc(NC(=O)c3ccc(F)cc3)cc2C1 [Compound 15]	–
< 1%	–	C=CC(=O)N1CCc2cc(Cc3ccccc3)ccc2C1 [Compound 7]	inhibition at 25 µM (SUMO E1; [2]): 20%
< 1%	< 1%	C=CC(=O)N1Cc2cccc(Cl)c2[C@@H](c2ccccc2C)C1 [Compound 76]	–
< 1%	–	C=CC(=O)N1Cc2cc(Cl)ccc2[C@@H](c2ccccc2C)C1 [Compound 75]	inhibition at 10 µM (SUMO E1; 60 min preincubation): 100%
< 1%	–	C=CC(=O)N1Cc2ccc(Br)cc2[C@@H](c2ccc(Cl)cc2)C1 [Compound 65]	SUMO E1 percent inhibition of adduct formation (SUMO E1; 25 uM compound, 60 min preincubation, 25 µM): 25 uM 60 min 10%
90%	–	CCS(=O)(=O)N1Cc2sc(Cl)cc2[C@@H](c2ccccc2C)C1 [Compound 96]	inhibition at 9 µM (SUMO E1; 30 min preincubation): < 1%
< 1%	–	C/C=C/C(=O)N1Cc2sc(Cl)cc2[C@@H](c2ccccc2C)C1 [Compound 97]	inhibition at 9 µM (SUMO E1; 30 min preincubation): < 1%
< 1%	10%	C=CC(=O)N1Cc2sc(C)cc2[C@@H](c2ccccc2)C1 [Compound 74]	–
< 1%	–	C=CC(=O)N1CCc2sc(Cl)cc2[C@@H](c2ccccc2)C1 [Compound 142]	inhibition at 9 µM (SUMO E1; 30 min preincubation): 80%
< 1%	–	C=CC(=O)N1CCc2ccccc2[C@@H](c2ccccc2)[C@H]1C [Compound 140]	inhibition at 27 µM (SUMO E1; 30 min preincubation): < 1%
< 1%	–	C=CC(=O)N1Cc2sc(Cl)cc2[C@@H](c2ccccc2Br)C1 [Compound 113]	inhibition at 1 µM (SUMO E1; 30 min preincubation): 95%
< 1%	50%	C=CC(=O)N1CCc2cc(Oc3ccccc3)ccc2C1 [Compound 24]	–
< 1%	–	C=CC(=O)N1Cc2cc(Br)ccc2[C@@H](c2ccccc2)C1 [Compound 61]	inhibition at 10 µM (SUMO E1; 60 min preincubation): 100%

inhibition at 25 µM (Atg7)	inhibition at 25 µM (SUMO E1; [1])	Structure (SMILES)	further results
< 1%	–	C=CC(=O)N1Cc2sc(C)cc2[C@@H](c2ccccc2C)C1 [Compound 89]	inhibition at 9 µM (SUMO E1; 30 min preincubation): 95%
< 1%	< 1%	C=CC(=O)N1Cc2ccccc2[C@@H](C(=O)OC)C1 [Compound 27]	–
< 1%	5%	C=CC(=O)N1Cc2cccc(Br)c2[C@@H](c2ccccc2)C1 [Compound 62]	–
< 1%	–	C=CC(=O)N1CCc2c(Br)cccc2C1 [Compound 1]	inhibition at 25 µM (SUMO E1; 25 uM compound, 55 min preincubation of E1 with compound): 50%
< 1%	–	C=C(F)C(=O)N1Cc2sc(Cl)cc2[C@@H](c2ccccc2C)C1 [Compound 104]	inhibition at 25 µM (SUMO E1; [2]): < 1%
< 1%	–	C=CC(=O)N1Cc2sc(Cl)cc2[C@@H](c2ccccc2F)C1 [Compound 114]	inhibition at 1 µM (SUMO E1; 30 min preincubation): 100%
< 1%	–	Cc1ccccc1[C@H]1CN(C(=O)/C=C/C(F)F)Cc2sc(Cl)cc21 [Compound 122]	inhibition at 1 µM (SUMO E1; 30 min preincubation): 100%
< 1%	–	C=CC(=O)N1CCc2ncncc2C1 [Compound 5]	inhibition at 25 µM (SUMO E1; [2]): 10%
< 1%	10%	C=CC(=O)N1CCc2cc(Oc3cccnc3)ccc2C1 [Compound 54]	–
< 1%	–	C=CC(=O)N1Cc2cc(Cl)c(Cl)cc2[C@@H](c2ccccc2)C1 [Compound 100]	inhibition at 3 µM (SUMO E1; 15 min preincubation): 30%
< 1%	< 1%	C=CC(=O)N1Cc2ccccc2[C@@H](c2cccc(OC)c2)C1 [Compound 35]	–
< 1%	–	Cc1ccccc1[C@H]1CN(C(=O)/C=C/c2ccc(C#N)cc2)Cc2sc(Cl)cc21 [Compound 121]	inhibition at 27 µM (SUMO E1; 30 min preincubation): < 1%
< 1%	< 1%	CCC(=O)Nc1ccc2cc(Br)ccc2c1 [Compound 25]	–
< 1%	< 1%	C=CC(=O)N1Cc2ccc(Br)cc2[C@@H](c2c(Cl)cccc2Cl)C1 [Compound 56]	–
< 1%	–	C=CC(=O)N1CCc2ccccc2[C@@H](c2ccccc2)C1 [Compound 139]	inhibition at 27 µM (SUMO E1; 30 min preincubation): < 1%
< 1%	< 1%	C=CC(=O)N1CCc2cc(Cc3ccc(OC)cc3)ccc2C1 [Compound 23]	–
100%	–	Cc1ccccc1[C@H]1CN(C(=O)CCl)Cc2sc(Cl)cc21 [Compound 115]	inhibition at 27 µM (SUMO E1; 30 min preincubation): 80%
< 1%	40%	COC(=O)/C=C/C(=O)N1Cc2ccccc2[C@@H](c2ccccc2)C1 [Compound 37]	–
< 1%	–	C=CC(=O)N1Cc2sc(-c3ccccc3)cc2[C@@H](c2ccccc2)C1 [Compound 103]	inhibition at 27 µM (SUMO E1; 30 min preincubation): < 1%
< 1%	< 1%	C=CC(=O)N1Cc2ccccc2[C@@H](C(=O)Nc2ccccc2)C1 [Compound 32]	–
< 1%	–	C=CC(=O)N1Cc2sc(Cl)cc2[C@@H](c2ccccc2-c2ccncc2)C1 [Compound 136]	inhibition at 3 µM (SUMO E1; 30 min preincubation): 100%
